One assay relates to LLC cells. Kind of assay: LLC tumor growth in WT mice, anti-PD-L1 antibody and/or CD45 inhibitor. The format is in vivo, mouse. Conditions: young WT mice; for tumor growth: CD45 inhibitor (3 mg/kg i.p., from day 7, three times) in combination with anti-PD-L1 antibody (2 mg/kg, days 7, 13, 19), LLC 2×10^6; for inhibitory effect against LLC tumor growth: CD45 inhibitor alone. How it is done: (§1) CD45 inhibition (FIG. 12): 2-(4-acetylanilino)-3-chloronaphthoquinone (211) (530197, EDM Millipore) (12) (3 mg/kg) or N-(9,10-dioxo-9,10-dihydrophenanthren-2-yl)-2,2-dimethylpropionamide (PTP) (540215, Sigma-Aldrich) (13) (3 mg/kg) was administered intraperitoneally to mice before tumor cell inoculation or 5 or 7 days after tumor cell inoculation. MC38 cells (5×10^5 or 1×10^6) or LLC cells (2×10^6) were intradermally inoculated into the right flank of mice (day 0). Seven days after LLC cell inoculation (day 7), mice received intraperitoneal administration of anti-PD-L1 antibody (clone 1-111A.4) (2 mg/kg). Administration of this anti-PD-L1 antibody was repeated 3 times at an interval of 6 days (on days 7, 13, and 19). Tumor size was measured with calipers, and tumor volume was calculated using the following formula: π (length×breadth×height)/6.
LLC cells (2×10^6 cells/tumor) were i.d. inoculated into the right flank of young (1 to 2-month old) WT mice (FIG. 16A). After 7 days, therapy was started using anti-PD-L1 antibody alone or in combination with CD45 inhibitor (211 or PTP) to examine tumor growth (FIG. 16A). […] Further, a therapeutic effect of using CD45 inhibitor alone was examined under similar conditions.

Assay [1] deals with MC38 murine colon adenocarcinoma cells. Kind of assay: MC38 tumor growth in PD-1 KO mice given CD45 inhibitor. In kind it is in vivo, mouse. As to conditions: for tumor volume: PD-1 KO mice (2-month old), vs vehicle. How it is done: as §1
CD45 inhibitor (211) was administered intraperitoneally at 3 mg/kg to PD-1 KO mice (2-month old) once 3 days before inoculation of MC38 murine colon adenocarcinoma cells (preadministration) or 3 times 5 days after inoculation of MC38 cells (postadministration) (FIG. 13A and B). MC38 cells were intradermally inoculated into the right flank of miceat 1×10^6 cells/tumor.
CD45 inhibitor (211) was administered intraperitoneally at 3 mg/kg to young (1 to 2-month old) or aged (14 to 16-month old) PD-1 KO mice […]. Three days after administration of 211, MC38 cells were intradermally inoculated into the right flank of mice at 5×10^5 cells/tumor, followed by monitoring tumor growth.

We go through 2 compounds from patent US20240148676A1, “COMBINATION THERAPY WITH PD-1 SIGNAL INHIBITOR” (Kyoto University, priority 2021, published 2024).

For `CC(C)(C)C(=O)Nc1ccc2c(c1)C(=O)C(=O)c1ccccc1-2` [PTP, N-(9,10-dioxo-9,10-dihydrophenanthren-2-yl)-2,2-dimethylpropionamide], in the assay with LLC cells, the tumor growth result is given as “significantly inhibited” and the “inhibitory effect against LLC tumor growth” value is reported as “significant inhibitory effect was not shown”.

Consider `CC(=O)c1ccc(NC2=C(Cl)C(=O)c3ccccc3C2=O)cc1` [compound 211, 2-(4-acetylanilino)-3-chloronaphthoquinone], for which the tumor growth entry in the assay with LLC cells was “significantly inhibited”; in assay [1] (aged (14 to 16-month old) PD-1 KO mice, 3 mg/kg i.p. 3 days before MC38 (5×10^5) inoculation), “strongly inhibited”. In the assay with LLC cells, the “inhibitory effect against LLC tumor growth” value is recorded as “significant inhibitory effect was not shown”. The tumor volume result in assay [1] (postadministration: 3 mg/kg i.p. 3 times from day 5 after MC38 (1×10^6) inoculation) and in assay [1] (preadministration: 3 mg/kg i.p. once 3 days before MC38 (1×10^6) inoculation) was “significantly reduced” each time.
